Measured values from patent publication US20090118258A1, “COMBINATION THERAPY COMPRISING ANGIOTENSIN CONVERTING ENZYME INHIBITORS AND VASOPRESSIN RECEPTOR ANTAGONISTS” (priority 2007, published 2009).

Legend:
[1] = test system: streptozotocin-induced diabetic rat; assay: Streptozotocin-induced diabetic rat model of nephropathy; type: in vivo
Method: The streptozotocin-induced diabetic rat is a model of Type I diabetes that develops early renal dysfunction manifested as increased urine albumin excretion. One week after administration of streptozotocin, 65 mg/kg, i.p., rats were assigned to the following treatment groups: no treatment; Compound 1 at 30 mg/kg/d; or enalapril at 30 mg/kg/d. Both compounds were dosed in drinking water for 12 weeks. Mortality among the treatment groups at 12 weeks was 1/10 in the untreated and Compound 1-treated groups and 3/10 in the enalapril-treated group. As a result of the diabetic state, urine volumes were nearly 10 times that of non-diabetic rats. […] The fraction of filtered sodium and potassium excreted was unaffected by either Compound 1 and enalapril.

[2] = test system: rat remnant kidney model; assay: Blood pressure in rat remnant kidney model; type: in vivo; details: Compound 1 10 and 30 mg/kg/d; enalapril; combination enalapril + Compound 1 30 mg/kg/d; FIG. 3
Method: (§1) Treatments were started 21 days after RMR, when animals already had overt nephropathy. Treatment groups (n=8/group, except enalapril n=7) included vehicle; Compound 1 at 10 mg/kg/d; Compound 1 at 30 mg/kg/d; enalapril at 15 mg/mL (in drinking water); and enalapril at 15 mg/mL+Compound 1 at 30 mg/kg/d. All compounds were administered in drinking water. An additional sham-operated untreated group was also included. Measurements were made at 21 d after RMR but before treatment, and at one and two months of treatment. […] Since the increased mortality was not dose dependent and was not apparent in the group receiving combination treatment with Compound 1 and enalapril (Table 1), the effect is likely due to chance and the known variability in the severity of renal failure in this model.
Blood pressure reduction can contribute to slowing the progression of renal disease in this animal model as well as in humans.

[3] = test system: db/db mice; type: in vivo
Method: Male db/db mice, a genetic model of type 2 diabetes, develop early renal dysfunction manifested as increased urine albumin excretion. At 9 weeks of age diabetes was confirmed by measurement of blood glucose (>300 mg/dL) and animals assigned to one of three treatment groups (n=12/group): untreated, Compound 1, 30 mg/kg/d and enalapril, 30 mg/kg/d. Compounds were dosed in drinking water for 16 weeks. There was no mortality in any of the treatment groups. Body weights for animals were similar at the beginning of the study.

[4] = test system: rat remnant kidney model; assay: Water intake and diuresis in remnant kidney model; type: in vivo; details: mean ± S.E.
Method: Treatments were started 21 days after RMR, when animals already had overt nephropathy. […] All compounds were administered in drinking water. An additional sham-operated untreated group was also included. Measurements were made at 21 d after RMR but before treatment, and at one and two months of treatment. […] Since the increased mortality was not dose dependent and was not apparent in the group receiving combination treatment with Compound 1 and enalapril (Table 1), the effect is likely due to chance and the known variability in the severity of renal failure in this model.
(§2) Water intake and diuresis was increased in all treatment groups following RMR (Table 2). […] There were no differences in serum electrolytes in any of the treatment groups at the termination of the experiment (Table 2).

[5] = test system: rat remnant kidney model; assay: Serum and urine electrolytes in remnant kidney model; type: in vivo; details: enalapril alone, combination
Method: as §1, §2
Urinary Na excretion was reduced in the vehicle treated RMR rats. […] Urinary K and Cl excretion were reduced in rats with RMR compared to control rats.

[6] = test system: Type I diabetic rats; assay: Arterial pressure and heart rate in Type I diabetic rats after seven days oral administration; type: in vivo, rat; details: oral administration for seven days
Method: Oral administration of Compound 1 for seven days in Type I diabetic rats had no effect on mean arterial pressure or heart rate over 48 h in diabetic rats. […] Oral administration of enalapril for seven days had no effect on arterial pressure over 48 h in diabetic rat

[7] = test system: rat remnant kidney model; assay: Rat remnant kidney model of nephropathy (renal mass reduction, RMR); type: in vivo; details: for number of ED 1 positive cells per field (monocytes/macrophages in renal interstitium): termination, vehicle 63±4, not statistically significant; for Mortality rate: rat, in vivo
From the text: The rat remnant kidney model is an animal model of severe progressive renal failure. In this model, a state of severe progressive renal failure is produced by renal mass reduction (RMR) through removal of one kidney and ligation of several branches of the renal artery, resulting in infarction and loss of function of two thirds of the remaining kidney. The procedure creates the conditions of severe hypertension, proteinuria, progressive renal function deterioration, tubulointerstitial damage and glomerulosclerosis (Olson J L, Hostetter T H, Rennke H G, Brenner B M, Venkatachalam M A: “Altered glomerular permselectivity and progressive sclerosis following extreme ablation of renal mass”. Kidney Int 22:112-126, 1982).
Nephropathy is evident as a progressively increasing amount of protein in urine, increases in serum creatinine and increases in arterial pressure. In addition, severe sclerosis of the glomeruli, inflammatory cell infiltration and tubular damage are measurable through histological analysis within 3 months of renal mass reduction (RMR). These measures form the basis for determining efficacy in the model. Urine protein, serum creatinine and arterial pressure are similarly measured in humans to determine impact of treatments on disease progression.
The aim of this study was to evaluate the effects of Compound 1 compared to an ACE inhibitor (enalapril), as well as the combination treatment with Compound 1 and enalapril, on proteinuria and renal disease progression in this model. The effectiveness of these agents has been associated with reductions in proteinuria, slowing of the rate of rise in serum creatinine and reduction in glomerular sclerosis and thus slowing of the progression to end stage renal failure.
as §1

[8] = 30 mg/kg/d in drinking water for 12 weeks
[9] = 1 month of treatment, Compound 1 10 mg/kg/d
[10] = 1 month of treatment, Compound 1 30 mg/kg/d
[11] = 2 month of treatment, Compound 1 10 mg/kg/d
[12] = 2 month of treatment, Compound 1 30 mg/kg/d
[13] = basal (before RMR and treatment), group Compound 1 10 mg/kg/d
[14] = basal (before RMR and treatment), group Compound 1 30 mg/kg/d
[15] = pre-treatment (21 d after RMR), group Compound 1 10 mg/kg/d
[16] = pre-treatment (21 d after RMR), group Compound 1 30 mg/kg/d
[17] = both doses of Compound 1, reduced in RMR rats vs control
[18] = 1 and 2 months of treatment, Compound 1 10 and 30 mg/kg/d, enalapril 15 mg/mL, combination enalapril + Compound 1 30 mg/kg/d, FIG. 1

**Q.** Which results are given for `COc1cc(C(=O)N2CC[C@]3(C=C(C(=O)O)CC3)Cc3ccccc32)ccc1NC(=O)c1cc(F)ccc1Cl` [Compound 1]?
**A.** fraction of filtered sodium and potassium excreted [1, 8]: unaffected; urine endpoints: daily volume output, osmolarity, chloride, creatinine, sodium or potassium concentrations, clearances or excretion values [1, 8]: not significantly altered; urine albumin excretion ([1]; 30 mg/kg/d in drinking water, compared to vehicle treated controls, FIG. 4): significant decrease; serum albumin concentrations ([1]; 30 mg/kg/d, compared to vehicle treated controls): not statistically significant, serum albumin concentrations increased; kidney weight or renal glomerular or mesangial morphology ([1]; 30 mg/kg/d, compared to vehicle treated diabetic rats): no significant effects; urine free water clearance ([1]; Compound 1 30 mg/kg/d): trend toward increased urine free water clearance; serum osmolarity ([1]; Compound 1 30 mg/kg/d, compared to vehicle treated controls): decreased significantly; arterial pressure [2]: significant reductions in arterial pressure compared to vehicle; urinary albumin excretion (in words) ([3]; 30 mg/kg/d in drinking water for 16 weeks, FIG. 5): unaffected; mesangial surface area or percentage of glomerular area occupied by mesangium ([3]; 30 mg/kg/d, compared to vehicle-treated animals): No significant differences; urine osmolarity ([3]; 30 mg/kg/d, throughout 16 weeks of dosing): unaffected by treatment; diuresis [4, 9]: 47 ± 2 mL/24 h; water intake [4, 9]: 53 ± 9° mL/24 h; diuresis [4, 10]: 41 ± 4 mL/24 h; water intake [4, 10]: 60 ± 7 mL/24 h; diuresis [4, 11]: 43 ± 5 mL/24 h; water intake [4, 11]: 62 ± 6 mL/24 h; diuresis [4, 12]: 49 ± 8 mL/24 h; water intake [4, 12]: 60 ± 16 mL/24 h; diuresis [4, 13]: 19 ± 1 mL/24 h; water intake [4, 13]: 43 ± 5 mL/24 h; diuresis [4, 14]: 19 ± 1 mL/24 h; water intake [4, 14]: 47 ± 3 mL/24 h; diuresis [4, 15]: 44 ± 3 mL/24 h; water intake [4, 15]: 66 ± 5 mL/24 h; diuresis [4, 16]: 55 ± 4 mL/24 h; water intake [4, 16]: 76 ± 6 mL/24 h; urinary Na excretion ([5]; both doses of Compound 1 (10, 30 mg/kg/d), reduced in vehicle treated RMR rats): tended to normalize urinary Na excretion to similar extents; urinary Cl excretion [5, 17]: tended to normalize urinary K and Cl excretion; urinary K excretion [5, 17]: tended to normalize urinary K and Cl excretion; (mean) arterial pressure over 48 h [6]: no effect; heart rate over 48 h [6]: no effect; serum creatinine [7, 18]: reduced urine protein and serum creatinine when administered alone but not to the same extent as enalapril; urine protein [7, 18]: reduced urine protein and serum creatinine when administered alone but not to the same extent as enalapril; number of ED 1 positive cells per field (monocytes/macrophages in renal interstitium) ([7]; Compound 1 10 mg/kg/d): 48±4 positive cells per field; number of ED 1 positive cells per field (monocytes/macrophages in renal interstitium) ([7]; Compound 1 30 mg/kg/d): 49±10 positive cells per field; mortality (in words) ([7]; Compound 1 10 and 30 mg/kg/d alone, combination Compound 1 30 mg/kg/d + enalapril, not dose dependent, judged due to chance): apparent excess mortality; Mortality rate ([7]; 10 mg/kg/day, 1 month): 2/8; Mortality rate ([7]; 10 mg/kg/day, 2 months): 4/8; Mortality rate ([7]; 30 mg/kg/day, 1 month): 2/8; Mortality rate ([7]; 30 mg/kg/day, 2 months): 3/8; percentage of sclerotic glomeruli ([7]; renal histology at termination, Compound 1 10 or 30 mg/kg/d, enalapril, combination enalapril + Compound 1 30 mg/kg/d, FIG. 2): tended to decrease the percentage of sclerotic glomeruli compared with vehicle, but this was not statistically significant
